Laboratory results as given in patent US10058530B2, “Combination therapies for the treatment of Alzheimer's disease and related disorders” (The General Hospital Corporation, priority 2012, dated 2018).
Entries after “also recorded” stand apart in the source; their conditions may differ. Where two headings read alike, the source gives them in different places.

How the values were obtained:
Aβ fibril formation = conditions: cited from earlier work
[1] = system: Alzheimer's disease patients; conditions: Phase 2a; cited from earlier work
AD patients = conditions: some AD patients; Wettstein and Spiegel, 1985; cited from earlier work
[2] = in vivo; cited from earlier work
Aβ peptide = assay: Aβ aggregation by thioflavin T assay; type: biochemical; conditions: for inhibition of Aβ amyloid peptide polymerization into oligomers and higher order aggregates: summary of four separate in vitro assays, nanomolar concentrations; for inhibition of Aβ aggregation, thioflavin fluorescence: nanomolar concentration
Experimental: One of the most routinely used approaches to monitor Aβ polymerization is the thioflavin T binding assay. […] Aβ peptide at 5 μM was mixed with 10 μM thioflavin T with drug at different concentrations.
(§1) One of the most routinely used approaches to monitor Aβ polymerization is the thioflavin T binding assay (Elmaleh, 2014; Hori, 2015). […] Aβ peptide at 5 μM was mixed with 10 μM thioflavin T with drug at different concentrations.
Fibrillization of synthetic Aβ40 (FIG. 12A, left column and FIG. 12B, left column) or Aβ42 (FIG. 12A, right column and FIG. 12B, right column) peptides was followed over 1 hour.

[3] = Brain concentration of PIB analog TS3124; conditions: in vivo
TBS soluble Aβ = TBS soluble Aβ level in brain of APP/PS1 mice by WAKO ELISA; type: in vivo
Excerpt: (§2) The treatment was given by IP injection everyday for 7 days before sacrificing the mice and harvesting the brain. Brain extracts were quantified for the total amount of Aβ40, Aβ42 and Aβ oligomers.
(§3) FIG. 5 illustrates the measurement of TBS soluble Aβ level by WAKO ELISA. […] As indicated, the number of animals per group is N=3 or 5, average±SE. The p value is significant using one-way ANOVA test (Bonferroni's test).

Aβ oligomer = assay: TBS soluble Aβ oligomer level in brain of APP/PS1 mice (IBL 82E1-82E1 oligomer ELISA); type: in vivo; conditions: IP daily 7 days
Excerpt: as §2
FIG. 6 illustrates the measurement of TBS soluble Aβ oligomer level IBL oligomer ELISA (82E1-82E1). […] FIGS. 6B and 6C show the difference the experiments with Gdn and those without Gdn using Aβ WAKO ELISA. N=3 or 5 animals per group, average±SE. The p value is not significant using one-way ANOVA test (Bonferroni's test).

Abeta (1-40) peptides = Abeta (1-40) peptides (Homo sapiens, UniProt P05067); assay: UV aggregation assay; type: biochemical
Abeta (1-40) peptides, sequence (P05067 672-711 limits assumed): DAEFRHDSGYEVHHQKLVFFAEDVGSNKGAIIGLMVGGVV
Experimental: Abeta peptide aggregation and the impact of drugs to slow or prevent Abeta aggregation was measured by a UV absorbance assay (Findeis, 1999). Abeta (1-40) peptides, at 50 μM, were mixed with 50 μM drug in assay buffer and the plate was incubated at ambient temperature on a plate reader. The UV absorbance was monitored at 540 nm over a 2-3 h period.
Polymerization of Aβ-monomer peptides into clusters of trimers and tetramers initiates the Aβ aggregation process into protofibrils and then into fibrils that form amyloid plaques.

[4] = system: microglia (Iba1) around amyloid deposits; assay: Immunostaining of Aβ and microglial marker Iba1 in brain sections of APP/PS1 mice; type: in vivo; conditions: 3.15 mg/kg daily for seven days, vs PBS
microglial cells = assay: Aβ uptake by cultured microglial cells; type: cell-based; conditions: 0, 10 nM, 10 μM or 1 mM, 16 hours
Experimental: After the incubation, the concentrations of […]-42 (right panel) in media were measured using Aβ ELISA and normalized with microglia cell number and according to the PBS control condition. (n=3 experiments; *, P<0.05, **, P<0.01)

[5] = human
clinical = conditions: human, in vivo; for MRT: mean residence time in plasma
[6] = J. Pharm. Sci. 92(6), 2003; cited from earlier work
[7] = inhalation studies, Beach et al. 1981; cited from earlier work
[8] = human lung, high inspiratory rates, dry powder inhaler; cited from earlier work
Aβ40 [9] = molecular target: T1, Aβ40 (Homo sapiens, UniProt P05067); assay: Thioflavin T fibrillization assay, synthetic Aβ40; type: biochemical; design: host or cells: synthetic peptide; conditions: 5 nM, 50 nM and 500 nM; followed over 1 hour
T1 sequence (P05067 672-711 limits assumed): as above
Experimental: as §1
(§4) Fibrillization of synthetic Aβ40 (FIG. 12A, left column and FIG. 12B, left column) or Aβ42 (FIG. 12A, right column and FIG. 12B, right column) peptides was followed over 1 hour. The corresponding Vmax index (milli-units/minute) is indicated on each graph.

Aβ42 [10] = molecular target: T2, Aβ42 (Homo sapiens, UniProt P05067); assay: Thioflavin T fibrillization assay, synthetic Aβ42; type: biochemical; design: host or cells: synthetic peptide; conditions: 5 nM, 50 nM and 500 nM; followed over 1 hour; smaller effects than on Aβ40
T2 sequence (P05067 672-713 limits assumed): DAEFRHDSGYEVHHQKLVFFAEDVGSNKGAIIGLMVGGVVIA
Experimental: as §1, §4

Aβ40 [11] = molecular target: T1, Aβ40; assay: TBS soluble Aβ40 level in brain of APP/PS1 mice by WAKO ELISA; type: in vivo; design: from tissue; host or cells: brain TBS-soluble extract of APP/PS1 transgenic mice; conditions: two higher doses (2.1 mg/kg and 3.15 mg/kg), IP daily 7 days
Excerpt: as §2, §3

Aβ42 [12] = molecular target: T2, Aβ42; assay: TBS soluble Aβ42 level in brain of APP/PS1 mice by WAKO ELISA; type: in vivo; design: from tissue; host or cells: brain TBS-soluble extract of APP/PS1 transgenic mice; conditions: two higher doses (2.1 mg/kg and 3.15 mg/kg), IP daily 7 days
Excerpt: as §2, §3

[13] = system: basal forebrain cholinergic neurons; conditions: rats; cited from earlier work
cholinergic neurons = conditions: aged rhesus monkeys; cited from earlier work

In the case of `O=c1c(O)c(-c2ccc(O)c(O)c2)oc2ccccc12` [3,3′,4′-Trihydroxyflavone, 3,3′,4′-Tri-hydroxyflavone], the “Effects on Aβ fibril formation” value (Aβ fibril formation) is given as “Inhibitory”.
For `O=c1c(O)c(-c2cccc(O)c2)oc2cc(O)ccc12` [3,3′,7-Trihydroxyflavone, 3,3′,7-Tri-hydroxyflavone], the “Effects on Aβ fibril formation” value (Aβ fibril formation) is listed as “Enhancing”.
For `O=c1c(O)c(-c2ccc(O)cc2)oc2cc(O)ccc12` [3,4′,7-Trihydroxyflavone, 3,4′,7-Tri-hydroxyflavone], the “Effects on Aβ fibril formation” value (Aβ fibril formation) is listed as “Inhibitory”.
For `O=c1c(O)c(-c2ccc(O)cc2)oc2cc(O)ccc12` [5-Deoxykaempferol, 5-Deoxy-kaempferol], the “Effects on Aβ fibril formation” value (Aβ fibril formation) is listed as “Enhancing”.
For `O=c1cc(-c2ccccc2)oc2cc(O)cc(O)c12` [Chrysin], the “Effects on Aβ fibril formation” value (Aβ fibril formation) is listed as “Enhancing”.
For `O=c1c(O)c(-c2ccc(O)cc2)oc2cc(O)cc(O)c12` [Kaempferol], the “Effects on Aβ fibril formation” value (Aβ fibril formation) is listed as “Enhancing”.
In the case of `O=c1cc(-c2ccc(O)c(O)c2)oc2cc(O)cc(O)c12` [Luteolin], the “Effects on Aβ fibril formation” value (Aβ fibril formation) is listed as “Inhibitory”.
For `O=c1c(O)c(-c2cc(O)c(O)c(O)c2)oc2cc(O)cc(O)c12` [Myricetin], the “Effects on Aβ fibril formation” value (Aβ fibril formation) is given as “Inhibitory”.
For `O=c1c(O)c(-c2ccc(O)c(O)c2)oc2cc(O)cc(O)c12` [Quercetin], the “Effects on Aβ fibril formation” value (Aβ fibril formation) is given as “Inhibitory”.
For `O=C(NC1CN2CCC1CC2)c1n[nH]c2ccccc12` (stereo not drawn) [R3487], the “effect on multiple measures of cognition” value [1] is listed as “statistically significant effect”.
For `CCN1C(=O)CC2(CCN(C)CC2)C1=O` [RS-86, 2-ethyl-8-methyl-2,8-diazospiro-4,5-decan-1,3-dione], the “cognitive function, mood and social behavior” value (AD patients) is given as “improves cognitive function, mood and social behavior” and the brain penetration [2] is given as “low”.
For `O=C([O-])c1cc(=O)c2c(OCC(F)COc3cccc4oc(C(=O)[O-])cc(=O)c34)cccc2o1.[Na+].[Na+]` [TS734], the “inhibition of Aβ amyloid peptide polymerization into oligomers and higher order aggregates” value (Aβ peptide) was “effectively inhibits”.
Compound `CC(F)CNc1ccc(-c2nc3ccc(O)cc3s2)cc1` (stereo not drawn) [TS3124] has a brain concentration [3] of 4%.
For `O=C([O-])c1cc(=O)c2c(OCC(O)COc3cccc4oc(C(=O)[O-])cc(=O)c34)cccc2o1.[Na+].[Na+]` [cromolyn sodium], the “monomeric Aβ (Gdn−)” value (TBS soluble Aβ; APP/PS1 mice, IP daily 7 days, no guanidine) was “decease; also recorded: reduction”, the “decrease of total soluble Aβ levels” value (TBS soluble Aβ; after 1 week of peripheral administration) was “over 50%” and the “Aβ oligomer level as difference with and without Gdn, WAKO ELISA” value (Aβ oligomer) was “not changed”. For the same compound, the “concentration at which Aβ peptide polymerization is inhibited” value (Aβ peptide) was 5 nM, the “inhibition of Aβ aggregation, thioflavin fluorescence” value (Aβ peptide) was “inhibition of Aβ aggregation; also recorded: inhibiting effect” and the “inhibition of Aβ aggregation, thioflavin fluorescence” value (Aβ peptide; listed as CO399) was “inhibition of Aβ aggregation”. The “inhibition of Aβ amyloid peptide polymerization into oligomers and higher order aggregates” value (Aβ peptide) was “inhibits its polymerization into oligomers and higher order aggregates; also recorded: effectively inhibits”, the “inhibition of Aβ amyloid peptide polymerization into oligomers and higher order aggregates” value (Aβ peptide; listed as cromolyn) was “effectively inhibits” and the “inhibition of Aβ peptide polymerization” value (Abeta (1-40) peptides) was 8 fold. The “inhibition of the rate of Aβ polymerization” value (Abeta (1-40) peptides; equimolar with Aβ (50 μM)) was 7 fold, the “time to 50% polymerization” value (Abeta (1-40) peptides; equimolar with Aβ (50 μM), 14 minutes in absence of drug) was 75 min and the “percentage of Iba1 immunoreactivity overlapping with amyloid” value [4] was “higher percentage of Iba1 immunoreactivity overlapping with amyloid”. For the same compound, the “percentage of Iba1 immunoreactivity overlapping with amyloid” value ([4]; listed as Cromolyn Sodium) was “increased overlap between Aβ and Iba1”, the “Aβ40 levels in media of microglia culture” value (microglial cells; 50 nM synthetic Aβ40) was “dose-dependent decrease” and the “Aβ42 levels in media of microglia culture” value (microglial cells; 50 nM synthetic Aβ42) was “dose-dependent decrease”. The “AUC (plasma)” value ([5]; 17.1 mg inhaled) was 147.5±67.1 ng/mlxh, the “AUC (plasma), range” value ([5]; 17.1 mg inhaled) was 44.7-287.0 ng/mlxh and the maximum plasma concentration ([5]; 17.1 mg inhaled) was 47.1 ± 33.6 ng/mL. For the same compound, the “maximum plasma concentration, range” value ([5]; 17.1 mg inhaled) was 14.0 to 133 ng/mL, the “time of maximum plasma concentration” value ([5]; 17.1 mg inhaled) was 23.3 ± 16.9 min and the “time of maximum plasma concentration, range” value ([5]; 17.1 mg inhaled) was 5 to 60 min. The “AUC (plasma)” value ([5]; 34.2 mg inhaled (double dose)) was 254.4±93.8 ng/mlxh, the “AUC (plasma), range” value ([5]; 34.2 mg inhaled (double dose)) was 122.1-443.3 ng/mlxh and the maximum plasma concentration ([5]; 34.2 mg inhaled (double dose)) was 95.0 ± 45.5 ng/mL. The “maximum plasma concentration, range” value ([5]; 34.2 mg inhaled (double dose)) was 36.1 to 236 ng/mL, the “time of maximum plasma concentration” value ([5]; 34.2 mg inhaled (double dose)) was 22.2 ± 19.4 min and the “time of maximum plasma concentration, range” value ([5]; 34.2 mg inhaled (double dose)) was 5 to 60 min. The “plasma concentration at 12 hours following inhalation” value ([5]; inhaled, expected) was “negligible”, the MRT (clinical; inhaled or intranasal, 17.1 mg, 17.1 mg inhaled) was 3.3 ± 2.9 h and the MRT (clinical; inhaled or intranasal, 17.1 mg, range, 17.1 mg inhaled) was 0.79 to 12.1 h. It also gave an MRT (clinical; inhaled or intranasal, 34.2 mg, 34.2 mg inhaled (double dose)) of 2.8 ± 1 h, an MRT (clinical; inhaled or intranasal, 34.2 mg, range, 34.2 mg inhaled (double dose)) of 1 to 5.4 h and a half-life (clinical; inhaled or intranasal, half-life of clearance from plasma, inhaled) of 1.75 ± 0.9 h. The half-life (clinical; inhaled or intranasal, half-life of clearance from plasma, range, inhaled) was 0.5 to 3.7 h, the half-life (clinical; plasma half-life corresponding to mean residence time, 17.1 mg inhaled) was ~2.3 h and the “% PSA” value [6] was 44. The LogP [6] was 1.9, the PSA [6] was 189 and the “pulmonary and cardiovascular (CV) function assessments” value [7] was “no treatment effect”. The “inhaled drug-delivered-dose absorbed into the bloodstream” value [8] was 10-15%, the “Aβ40 fibrillization, Thioflavin T fluorescence” value (Aβ40 [9]) was “significantly decreased” and the “Aβ42 fibrillization, Thioflavin T fluorescence” value (Aβ42 [10]) was “significantly decreased”. For the same compound, the “decrease in the amount of Aβ40” value (Aβ40 [11]) was “up to 50%” and the “decrease in the amount of Aβ42” value (Aβ42 [12]) was “up to 50%”.
In the case of Fisetin, the “Effects on Aβ fibril formation” value (Aβ fibril formation) is given as “Inhibitory”.
For “NGF: nerve growth factor; CERE-110 is NGF gene therapy”, the age-related behavioral decline [13] is given as “reversed age-related behavioral decline”, the “cholinergic neuron cell death” value [13] is given as “prevented cholinergic neuron cell death” and the cholinergic axonal density (cholinergic neurons) is given as “restores cholinergic axonal density in aged monkeys to levels observed in young monkeys”. For the same compound, the cholinergic neuron atrophy (cholinergic neurons) was “ameliorates cholinergic neuron atrophy”.
